Tested on: LG0567-F671-PDC KRAS tumor spheroid viability
Assay: Anticancer human tumor LG0567-F671-PDC patient-derived lung adenocarcinoma cell line growth inhibition [KRAS2]
Details: spheroids with HUVEC and MSC; for IC50: curve of first compound; for viability, T/C: stronger effect = lower value
Excerpt: Multicellular complex tumor spheroid response to RAS pathway inhibitors in combination with a targeted agents in patient-derived cell lines with oncogenic KRAS variants from multiple cancer types
A high-throughput screen of multi-cell type tumor spheroids was designed to identify active combinations of targeted small molecules and KRAS pathway inhibitors. Complex spheroids include a stromal component modeled by human endothelial cells (HUVEC) and fibroblasts modeled by human mesenchymal stem cells (MSCs). The concentration ranges selected for each drug and investigational agent were based upon clinically achievable concentrations if the clinical Cmax of the agent was known.
Compounds. The drugs and investigational agents: BI-3406 (NSC825286), BAY-293 (NSC824723), batoprotafib (TNO155; NSC825523), sotorasib (AMG 510; NSC818433), MRTX1257 (NSC819558), elimusertib (BAY 1895344; NSC800525), molibresib (GSK525762; NSC774829), temuterkib (LY3214996; NSC803410), venetoclax (NSC766270), alisertib (NSC759677), olaparib (NSC753686), talazoparib (NSC767125), erdafitinib (NSC781556), ipatasertib (NSC767898), cabozantinib (NSC761068), nintedanib (NSC756659), abemaciclib (NSC768073), docetaxel (NSC628503), trametinib (NSC758246), and sapanisertib (NSC764658) were obtained from the National Cancer Institute (NCI) Developmental Therapeutics Program Chemical Repository. The FDA-approved anticancer drug set is available from the Developmental Therapeutics Program. […] The stock solutions were prepared in dimethyl sulfoxide (DMSO, Sigma-Aldrich, St. Louis, MO, cat. D2650) at 800-fold the tested concentration and stored at -70 degrees C prior to their use. All drugs and investigational agents were tested over a range starting from a high concentration at or near the clinical Cmax and decreasing in half-log increments. If the clinical Cmax for an agent had not been determined, the highest concentration tested was 10 microM.
Cell Culture. All cells were maintained in an incubator at 37 degrees C and 5% CO2 with 95% humidity. The PDC lines were cultured according to standard operating procedures established by the NCI PDMR (https://pdmr.cancer.gov/sops/default.htm). Briefly, all PDCs were thawed and cultured in Matrigel-coated flasks prepared with a working solution of 1X Ham's F-12 nutrient mix, without supplementation (Invitrogen, Waltham, MA, cat. 11765054), 100 U/mL penicillin-streptomycin (Invitrogen, cat. 15140122), and 2.5% Matrigel (Corning Inc., Corning, NY, cat. 354248) for the first three passages. All PDCs were cultured in complete DMEM/F-12 media containing advanced DMEM/F-12 (Invitrogen, cat. 12634028), 4.9% defined fetal bovine serum, heat inactivated (HyClone Laboratories Inc., Logan, UT, cat. SH30070.03HI), 389 ng/mL hydrocortisone (Sigma-Aldrich, cat. H4001), 9.7 ng/mL human EGF recombinant protein (Invitrogen, cat. PHG0313), 23.4 microg/mL adenine (Sigma-Aldrich, cat. A2786), 97.3 U/mL penicillin-streptomycin (Invitrogen, cat. 15140122), 1.9 mM L-glutamine (Invitrogen, cat. 25030081), and 9.7 microM Y-27632 dihydrochloride (Tocris Bioscience, Bristol, United Kingdom, cat. 1254). The PDCs were cultured in complete DMEM/F12 media without 9.7 microM Y-27632 dihydrochloride for at least two passages prior to the screen. The established cell line HOP-62 was cultured in RPMI 1640 medium, HEPES (Invitrogen, cat. 22400105) with 10% defined fetal bovine serum (HyClone Laboratories Inc., cat. SH30070.03) and 2 mM L-glutamine (Invitrogen, cat. 25030081). The pooled donor HUVEC were cultured in endothelial cell growth medium 2 (PromoCell, Heidelberg, Germany, cat. C-22011) and the hMSC were cultured in mesenchymal stem cell growth medium 2 (PromoCell, cat. C-28009). For all experiments, HUVEC and hMSC were used at passages </=5, while the malignant cell lines were used at passages </=15. […]

[1] = second compound 0.0316 µM, first compound 0.0316 µM
[2] = second compound 0.0316 µM, first compound 0.1 µM
[3] = second compound 0.0316 µM, first compound 0.316 µM
[4] = second compound 0.0316 µM, first compound 1 µM
[5] = second compound 0.0316 µM, first compound 3.16 µM
[6] = second compound 0.0316 µM, first compound 10 µM
[7] = second compound 0.1 µM, first compound 0.0316 µM
[8] = second compound 0.1 µM, first compound 0.1 µM
[9] = second compound 0.1 µM, first compound 0.316 µM
[10] = second compound 0.1 µM, first compound 1 µM
[11] = second compound 0.1 µM, first compound 3.16 µM
[12] = second compound 0.1 µM, first compound 10 µM
[13] = second compound 0.316 µM, first compound 0.0316 µM
[14] = second compound 0.316 µM, first compound 0.1 µM
[15] = second compound 0.316 µM, first compound 0.316 µM
[16] = second compound 0.316 µM, first compound 1 µM
[17] = second compound 0.316 µM, first compound 3.16 µM
[18] = second compound 0.316 µM, first compound 10 µM
[19] = second compound 1 µM, first compound 0.0316 µM
[20] = second compound 1 µM, first compound 0.1 µM
[21] = second compound 1 µM, first compound 0.316 µM
[22] = second compound 1 µM, first compound 1 µM
[23] = second compound 1 µM, first compound 3.16 µM
[24] = second compound 1 µM, first compound 10 µM
[25] = second compound 3.16 µM, first compound 0.0316 µM
[26] = second compound 3.16 µM, first compound 0.1 µM
[27] = second compound 3.16 µM, first compound 0.316 µM
[28] = second compound 3.16 µM, first compound 1 µM
[29] = second compound 3.16 µM, first compound 3.16 µM
[30] = second compound 3.16 µM, first compound 10 µM
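Further: drug exposure lasted seven days after spheroids formed for three days.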
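Wherever viability, T/C is given: 100% = DMSO vehicle control viability.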

Compound	IC50 (second compound 0.0316 µM)	IC50 (second compound 0.1 µM)	IC50 (second compound 0.316 µM)	IC50 (second compound 1 µM)	IC50 (second compound 3.16 µM)	viability, T/C [1]	viability, T/C [2]	viability, T/C [3]	viability, T/C [4]	viability, T/C [5]	viability, T/C [6]	viability, T/C [7]	viability, T/C [8]	viability, T/C [9]	viability, T/C [10]	viability, T/C [11]	viability, T/C [12]	viability, T/C [13]	viability, T/C [14]	viability, T/C [15]	further results
CC1OCC2(CCN(c3cnc(Sc4ccnc(N)c4Cl)c(N)n3)CC2)C1N (stereo not given) + C=CC(=O)N1CCN(c2nc(OCC3CCCN3C)nc3c2CCN(c2cccc4cccc(C)c24)C3)CC1CC#N	< 31.6 nM	< 31.6 nM	< 31.6 nM	< 31.6 nM	< 31.6 nM	28.3%	18.1%	16.3%	11.3%	5.27%	4.04%	24.7%	14.6%	13.5%	7.14%	3.83%	4.19%	26.3%	17.8%	12.3%	viability, T/C [16]: 10%; viability, T/C [17]: 5.4%; viability, T/C [18]: 3.32%; viability, T/C [19]: 20.1%; viability, T/C [20]: 15.6%; viability, T/C [21]: 11.5%; viability, T/C [22]: 7.73%; viability, T/C [23]: 5.45%; viability, T/C [24]: 6.7%; viability, T/C [25]: 29.1%; viability, T/C [26]: 21.1%; viability, T/C [27]: 17.2%; viability, T/C [28]: 8.14%; viability, T/C [29]: 5.63%; viability, T/C [30]: 4.39%
CCNC(=O)CC1N=C(c2ccc(Cl)cc2)c2cc(OC)ccc2-n2c(C)nnc21 (stereo not given) + C=CC(=O)N1CCN(c2nc(OCC3CCCN3C)nc3c2CCN(c2cccc4cccc(C)c24)C3)CC1CC#N	51.2 nM	< 31.6 nM	2000 nM	< 31.6 nM	< 31.6 nM	48.4%	52.5%	36.7%	25.7%	17.2%	16.6%	46.5%	41.5%	25.6%	19.4%	15.3%	12.9%	99.2%	109%	72.8%	viability, T/C [16]: 60.9%; viability, T/C [17]: 46.8%; viability, T/C [18]: 40.2%; viability, T/C [19]: 35.7%; viability, T/C [20]: 32.3%; viability, T/C [21]: 24.6%; viability, T/C [22]: 17.5%; viability, T/C [23]: 14.6%; viability, T/C [24]: 12.8%; viability, T/C [25]: 41.3%; viability, T/C [26]: 32.7%; viability, T/C [27]: 22.6%; viability, T/C [28]: 13.3%; viability, T/C [29]: 9.07%; viability, T/C [30]: 7.07%

Source: PubChem BioAssay AID1963856 (Molecular Pharmacology Branch, DTP, NCI, 2024)
